Here are results for 22 molecules from patent US10870635B2, “Compounds and their use as BACE1 inhibitors” (ALLGENESIS BIOTHERAPEUTICS, INC., priority 2015, dated 2020).

Assay [1] has as its system Aβ38, Aβ40 and Aβ42 in CSF. Kind of assay: Efficacy study in monkeys: Aβ biomarkers in CSF after single oral administration. The conditions noted are these: Monkey CSF. The class given is in vivo, cynomolgus monkeys. An excerpt:
Certain isoforms of amyloid β peptide (AR), such as Aβ338, Aβ340 and Aβ342 have been established as relevant biomarkers that reflect BACE1 activity and have been exploited to establish translational relationships between different cellular assays and animal models. In this efficacy study, mammals were used to assess amyloid β reduction with BACE1 inhibitors. In a clinical setting, plasma and cerebrospinal fluid (CSF) are the accessible compartments to measure soluble amyloid β levels to determine target profile. It is important to analyze plasma and CSF levels which relate to changes in brain amyloid β levels. The concentration of BACE1 inhibitors and their time-dependent reduction of plasma, CSF and brain amyloid β levels were investigated following intravenous and oral administrations of BACE1 inhibitors.
a (ii). Formulation for PO administration: 5% (v/v) PEG400+95% (v/v) of 1% (w/v) methyl cellulose in water (the viscosity of methyl cellulose is 20 g/L, 20° C., cPa·s: 350.0-550.0). The test article solutions were prepared by dissolving the compound in PEG400 followed by the addition of the aqueous solution to the final volume.
For the oral formulation of a BACE1 inhibitor in the monkey efficacy study (at the dose of 20 mg/kg with the concentration of 2 mg/ml)
1) Weighed […] of the selected BACE1 inhibitors into a clean vial;
2) Added 2.826 mL of PEG400 into the tube containing the compound. Then vortexed for 5 min and sonicated for 45 min;
3) Added 53.688 mL of 1% MC in water into the tube containing the compound. Then vortexed for 4 min and sonicated for 4 min; and
4) Adjusted the pH to the physiological value by using 1N NaOH.
Several studies have shown that drug transport into the CNS may be more similar between humans and primates. […] To explore the mechanism of BACE1 compounds, the compounds were tested using this in vivo study. […] The monkey Aβ reduction study usually takes 3 weeks.
The time-course profiles of neurodegeneration biomarkers were determined following single oral administration of the selected BACE1 inhibitors to male cynomolgus monkeys. Blood samples were collected from all animals via the saphenous vein or cephalic vein at 0 (pre-dose), 0.5, 1, 3, 6, 8, 12 and 24 hr post-dose into test tubes containing potassium ethylenediaminotetraacetic acid (K2EDTA). CSF samples were collected via a pre-implanted cannula at the foramina occipital magnum site at 0 (pre-dose), 3, 6, 12 and 24 hr post-dose.
Plasma was separated from the blood by centrifugation at 4° C. and stored at −80° C. until analyzing. The biomarkers of Aβ38, Aβ40 and Aβ42 in CSF were quantified using Meso Scale Discovery (MSD) multiplex electrochemiluminescence immunoassay according to the manufacturer's instructions. The plates were first blocked with 150 μL of Diluent 35 for 1 hour at room temperature with constant shaking at 600 rpm. After washing three times with 200 μL washing buffer, 25 μL of 1× detection antibody solution, plus Aβ40 blocker, 25 μL of seven standards, zero standard and four-fold diluted samples were added to the assay plate. The plate was incubated for 2 hours at room temperature, with constant shaking at 600 rpm. Upon finishing, the plate was washed three times with washing buffer and read in a Sector Imager 6000 (MSD) immediately after addition of 150 μL of 2× Read Buffer T. Aβ concentrations were calculated with reference to the standard curves of each individual peptide and expressed as pg/mL using SoftMax Pro GXP 5.4.4.

For assay [2], the target named is BACE1 (recombinant β-secretase enzyme) (Homo sapiens (Human), UniProt P56817). Kind of assay: AnaSpec BACE1 fluorescent assay (beta-secretase activity assay). Format: biochemical. The protocol:
A BACE1 activity assay kit from AnaSpec (Fremont, Calif.) was used to determine the potency of the selected BACE1 inhibitors by AnaSpec BACE1 fluorescent assay. The recombinant β-secretase enzyme was diluted 1:200 in 1× assay buffer (1 part of 1× assay buffer and 1 part of TBS containing 0.1% Tween 20). The enzyme was added in a volume of 40 μl to each well of a black 96-well micro plate.
The BACE1 inhibitors were serially diluted into DMSO from their 10 mM stock concentrations in DMSO. The serially diluted inhibitors were diluted 1:100 into 1× assay buffer in a 96-well polypropylene plate (assay dilution plate). The final concentration of the BACE1 inhibitor tested was 300 nM, 100 nM, 30 nM, 10 nM, 3 nM, 1 nM 0.3 nM, and 0.00 nM. Dose responses for inhibitors were run in duplicate.
A volume of 10 μl of the inhibitor from the assay dilution plate, a control inhibitor LY2886721 or inhibitor vehicle was then added to each well of the black 96-well micro plate containing BACE1.
To each well of the black 96-well micro plate, 50 μl of the β-secretase substrate (Hylite Fluor 488) diluted 1:100 using assay buffer was added. The reagents were mixed gently and the assay plate was placed into a POLARstar fluorescent plate reader with excitation wavelength set at 485 nm and the emission wavelength set at 520 nm. The plate reader was set to take readings every 5 minutes for up to 30 minutes or a 30 minute endpoint reading was used.
An appropriate integrated first-order rate equation was used to fit the data accumulated over a 30-40 minute collection period.

pIC50: −log10 of the molar value.

Chain of BACE1 (recombinant β-secretase enzyme) (P56817 46-501): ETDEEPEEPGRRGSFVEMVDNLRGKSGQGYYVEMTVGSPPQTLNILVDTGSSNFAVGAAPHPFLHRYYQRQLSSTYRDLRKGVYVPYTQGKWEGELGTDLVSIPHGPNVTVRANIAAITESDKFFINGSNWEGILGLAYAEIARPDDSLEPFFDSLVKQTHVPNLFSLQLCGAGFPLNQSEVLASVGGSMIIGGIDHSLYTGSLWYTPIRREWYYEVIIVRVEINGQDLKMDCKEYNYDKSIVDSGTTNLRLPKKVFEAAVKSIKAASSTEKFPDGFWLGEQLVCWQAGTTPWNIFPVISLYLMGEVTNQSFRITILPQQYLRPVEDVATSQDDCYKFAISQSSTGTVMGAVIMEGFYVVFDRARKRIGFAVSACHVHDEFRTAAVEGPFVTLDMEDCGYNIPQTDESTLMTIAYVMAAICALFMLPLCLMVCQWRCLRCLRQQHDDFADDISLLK

For the molecule `CC#Cc1ccc2sc3cc(F)c([C@]4(C)CC(=O)N(C)C(=N)N4)cc3c2c1` [Example 72, (S)-6-(3-Fluoro-8-(prop-1-yn-1-yl)dibenzo[b,d]thiophen-2-yl)-2-imino-3,6-dimethyltetrahydropyrimidin-4(1H)-one], the “% of maximum Aβ40 inhibition over 24 hours” value in assay [1] came to 33.7%. The pIC50 (in general, −log10 of the IC50, conventionally taken in molar units) in assay [2] is 7.68.
As to `CC#Cc1ccc2c(c1)-c1cc([C@]3(C)CC(=O)N(C)C(=N)N3)ccc1S2(=O)=O` [Example 79, (S)-2-Amino-6-(5,5-dioxido-8-(prop-1-yn-1-yl)dibenzo[b,d]thiophen-2-yl)-3,6-dimethyl-5,6-dihydropyrimidin-4(3H)-one], the pIC50 in assay [2] is 7.06.
The same measure, in the same setting: under `CC#Cc1ccc2c(c1)c1cc([C@]3(C)CC(=O)N(C)C(=N)N3)ccc1[s+]2[O-]` (stereo partly drawn) [Example 80, (6S)-2-Amino-3,6-dimethyl-6-(5-oxido-8-(prop-1-yn-1-yl)dibenzo[b,d]thiophen-2-yl)-5,6-dihydropyrimidin-4(3H)-one] stands 7.32; under `CC#Cc1ccc2c(c1)-c1cc([C@]3(C)CC(=O)N(C)C(=N)N3)ccc1C2(C)C` [Example 81, (S)-6-(9,9-Dimethyl-6-(prop-1-yn-1-yl)-9H-fluoren-3-yl)-2-imino-3,6-dimethyl-tetrahydropyrimidin-4(1H)-one], under 6.52; under `CC#Cc1ccc2c(c1)-c1cc([C@]3(C)CC(=O)N(C)C(=N)N3)ccc1C2(F)F` [Example 82, (S)-6-(9,9-Difluoro-6-(prop-1-yn-1-yl)-9H-fluoren-3-yl)-2-imino-3,6-dimethyltetrahydropyrimidin-4(1H)-one], under 6.52.
Consider `CN1C(=N)N[C@](C)(c2ccc3sc4ccc(C#N)cc4c3c2)CC1=O` [Example 85, (S)-8-(2-Imino-1,4-dimethyl-6-oxohexahydropyrimidin-4-yl) dibenzo[b,d]thiophene-2-carbonitrile], for which the pIC50 in assay [2] is under 6.52.
As to `COCC#Cc1ccc2sc3ccc([C@]4(C)CC(=O)N(C)C(=N)N4)cc3c2c1` [Example 86, (S)-2-Amino-6-(8-(3-methoxyprop-1-yn-1-yl)dibenzo[b,d]thiophen-2-yl)-3,6-dimethyl-5,6-dihydropyrimidin-4(3H)-one], in assay [2], the pIC50 was 6.66.
Same read-out and setting: under `CN1C(=N)N[C@](C)(c2ccc3sc4ccc(C#CCO)cc4c3c2)CC1=O` [Example 87, (S)-2-Amino-6-(8-(3-hydroxyprop-1-yn-1-yl)dibenzo[b,d]thiophen-2-yl)-3,6-dimethyl-5,6-dihydropyrimidin-4(3H)-one] stands 7.77; under `CN1C(=N)N[C@](C)(c2ccc3sc4ccc(Br)cc4c3c2)CC1=O` [Example 88, (S)-6-(8-Bromodibenzo[b,d]thiophen-2-yl)-2-imino-3,6-dimethyltetrahydro-pyrimidin-4(1H)-one], under 6.52.
Take `CCCc1ccc2sc3ccc([C@]4(C)CC(=O)N(C)C(=N)N4)cc3c2c1` [Example 89, (S)-2-Imino-3,6-dimethyl-6-(8-propyl-dibenzo[b,d]thiophen-2-yl)tetrahydro-pyrimidin-4(1H)-one]: the pIC50 in assay [2] is under 6.52.
Still for that read-out and setting: to `CN1C(=N)N[C@](C)(c2ccc3sc4ccc(C5CC5)cc4c3c2)CC1=O` [Example 90, (S)-6-(8-Cyclopropyldibenzo[b,d]thiophen-2-yl)-2-imino-3,6-dimethyl-tetrahydropyrimidin-4(1H)-one] belongs 7.11; to `CN1C(=N)N[C@](C)(c2ccc3sc4ccc(C(N)=O)cc4c3c2)CC1=O` [Example 91, (S)-8-(2-Imino-1,4-dimethyl-6-oxohexahydropyrimidin-4-yl)dibenzo [b,d]thiophene-2-carboxamide], under 6.52; to `CCN(CC)c1ccc2sc3ccc([C@]4(C)CC(=O)N(C)C(=N)N4)cc3c2c1` [Example 92, (S)-6-(8-(Diethylamino)dibenzo[b,d]thiophen-2-yl)-2-imino-3,6-dimethyl-tetrahydropyrimidin-4(1H)-one], under 6.52.
The same measure, in the same setting: under `CN1C(=N)N[C@](C)(c2ccc3sc4ccc(C(F)(F)F)cc4c3c2)CC1=O` [Example 94, (S)-2-Amino-3,6-dimethyl-6-(8-(trifluoromethyl)dibenzo[b,d]thiophen-2-yl)-5,6-di hydropyrimidin-4(3H)-one] stands 7.09.
Same read-out and setting: to `CC#Cc1ccc2sc3ccc([C@]4(C5CC5)CC(=O)N(C)C(=N)N4)cc3c2c1` [Example 99, (R)-6-Cyclopropyl-2-imino-3-methyl-6-(8-(prop-1-yn-1-yl)dibenzo[b,d]thiophen-2-yl)tetrahydropyrimidin-4(1H)-one] belongs under 6.52; to `CC#Cc1ccc2sc3ccc([C@@]4(C)NC(=N)OCC4(F)F)cc3c2c1` [Example 100, (R)-5,5-Difluoro-4-methyl-4-(8-(prop-1-yn-1-yl)dibenzo[b,d]thiophen-2-yl)-1,3-oxazinan-2-imine], 6.69.
In the case of `CC#Cc1ccc2sc3ccc([C@]4(C)CS(=O)(=O)N(C)C(=N)N4)cc3c2c1` [Example 104, (R)-3-Imino-2,5-dimethyl-5-(8-(prop-1-yn-1-yl)dibenzo[b,d]thiophen-2-yl)-1,2,4-thiadiazinane 1,1-dioxide], in assay [2], the pIC50 was under 6.52.
Still for that read-out and setting: to `CC#Cc1ccc2sc3ccc([C@]4(C)CC(=O)N(CC(F)F)C(=N)N4)cc3c2c1` [Example 105, (S)-3-(2,2-Difluoroethyl)-2-imino-6-methyl-6-(8-(prop-1-yn-1-yl)dibenzo [b,d]thiophen-2-yl)tetrahydropyrimidin-4(1H)-one] belongs under 6.52; to `CC#Cc1ccc2sc3ccc([C@]4(C)CC(=O)N(CCOC)C(=N)N4)cc3c2c1` [Example 106, (S)-2-Imino-3-(2-methoxyethyl)-6-methyl-6-(8-(prop-1-yn-1-yl)dibenzo[b,d]thiophen-2-yl)tetrahydropyrimidin-4(1H)-one], under 6.52.
Same read-out and setting: to `CC#Cc1ccc2sc3ccc([C@]4(C)CN(C)C(=O)C(=N)N4)cc3c2c1` [Example 115, (R)-3-Imino-1,5-dimethyl-5-(8-(prop-1-yn-1-yl)dibenzo[b,d]thiophen-2-yl) piperazin-2-one] belongs under 6.52.
As to `CC#Cc1cc2c(cc1F)sc1ccc([C@]3(C)CS(=O)(=O)C(C)(C)C(=N)N3)cc12` [Example 128, (R)-5-(7-Fluoro-8-(prop-1-yn-1-yl)dibenzo[b,d]thiophen-2-yl)-3-imino-2,2,5-trimethylthiomorpholine 1,1-dioxide], in assay [1], the “% of maximum Aβ40 inhibition over 24 hours” value is reported as 49.1%.
On the same count and under the same terms, under `CC#Cc1ccc2sc3ccc([C@]4(C)CS(=O)(=O)C5(CC5)C(=N)N4)cc3c2c1` [Example 136, (R)-8-Imino-6-methyl-6-(8-(prop-1-yn-1-yl)dibenzo[b,d]thiophen-2-yl)-4-thia-7-azaspiro[2.5]octane 4,4-dioxide] stands 44.5%.
